# Patent publication US20020162794A1, “Anaerobic digestion” (priority 2001, published 2002)
# Where “and” joins values, the source holds several entries; their conditions need not be identical. Equal entries are not always repeated.
# Tests used:
# cattle = settings: added to organic roughage fed to cattle; cited from earlier work
# [1] = test system: anaerobic mixed culture (domestic sewage); experiment: Anaerobic digestion of domestic sewage, overall effect of formate salt concentration
# Procedure: The various formate salts include, but are not limited to sodium formate (NaHCOO), potassium formate (KHCOO), ammonium formate (NH4COO), calcium formate (Ca(HCOO)2), and others either singly or in combination. These formate salts have been tested for concentrations ranging from 10 mg/L (˜10 ppm) to as high as […] (100,000 mg/L) based on the organic matter available for digestion.
# Two tests were run in which sodium formate in concentrations ranging from a few parts per million (ppm) up to ten percent (10%) on a mass basis were added to samples taken from a publicly owned anaerobic digester. The samples were first cultured in laboratory sized batch reactors. The twelve batch reactors were then sampled, and studied for periods of up to fifty-five days. The process variables that were monitored included COD (Chemical Oxygen Demand), TS (Total Solids), TVS (Total Volatile Solids) and the pH of the culture. Time and the initial sodium formate concentration level were the independent variables. Finally measurements were also made of the bacterial counts at the beginning and at the end of the fifty five day period.
# (§1) Municipal sludge from the city of Lubbock, Wastewater Treatment Plant was digested in 12 batch digesters. Using twelve batch reactors allowed the collection of control reactors data (i.e., no formate in the reactors) in triplicate, titration studies of increasing formate concentration, and duplicates/triplicates of varying formate concentration. Experiments were conducted in the laboratories of Texas Tech University.
# [2] = test system: mixed culture from municipal sludge digester; experiment: Total Volatile Solids (TVS) of batch anaerobic digester reactors
# Procedure: After the above TS measurements were completed, the pans together with dried samples are put into furnace at 550° C. for about two hours. The weight of the pans are then noted (say W3). The difference […] then gives the weight of volatile solids in the 30 ml sample. Again this Total Volatile Solids concentration is manipulated to units of g/liter. TVS determination represents the concentration of the organic substrate in the test sample.
# as §1
# (§2) The reactors were setup on Mar. […] The substrate taken was 2 parts of 50 g/liter sucrose solution mixed with 1 part of digested municipal sludge which acts as the seed material for incorporation of microbes into the reactors. The experiments were started with the following protocol. [drawing 1]
# [3] = test system: mixed culture from a publicly owned anaerobic digester; experiment: Identification of predominant colony types in the mixed culture; type: cell-based
# [4] = test system: bacteria of the mixed anaerobic digester culture; experiment: Bacterial colony counts from formate bioreactors; type: cell-based
# Procedure: Procedure for Bacterial Colony Counts from Formate Bioreactors
# 1. Collect samples from each bioreactor in sterile 30-mL glass vials with screw caps.
# 2. All subsequent operations are performed aseptically in the anaerobic chamber under an atmosphere of 3% H2/7% CO2/90% N2.
# 4. Seed 0.1-mL samples form the dilution blanks into tryptic soy agar plates.
# 5. Inoculate three plates for each dilution. Final dilutions on the plates are 10^−3 and 10^−4
# 6. Incubate all plates anaerobically for 3-4 days at room temperature (approximately 25° C.) prior to manually counting the numbers of colonies on each plate.
# 7. Calculate the numbers of colony-forming units (CFU) per ml in the original samples.
# [5] = test system: mixed culture from municipal sludge digester; experiment: Volume and composition of gas generated in batch anaerobic digesters
# Source text: Volumetric gas production measurements
# The gases generated by the biological activity within the reactors were collected in the overhanging plastic bags. The bags are connected to a tank containing colored water via a gas port used for sampling purpose to determine the gas composition. To measure the volume of gas in the bag, the water in the tank is drained out maintaining a suction pressure head difference of 2 cm between the atmospheric air and the gas inside the tank. The water is drained until there is a jump in the pressure head differences, which is actually noted by observing a jump in the difference in levels of manometer limbs. […] The difference between final water level and initial water level is measured by the scale on the side of the tank and is indicative of the volume of gas collected in each of the bags. The gas is returned to the bags by pumping the drained water back into the water tank, whereby the collected gas inside the water tank is pushed back into the overhanging plastic bags.
# Gas composition measurements
# To analyze the composition of the gases collected, a small sample of gas was withdrawn through a gas port and then sent out for analysis by a commercial laboratory utilizing gas chromatography.
# as §1, §2
# [6] = 100000 ppm, average of reactors
structure (smiles),measurement,setting,value
O=C[O-].[Na+] [sodium formate],increase of digestibility of the feed,cattle,4-27%
same,effect on anaerobic digestion over the tested concentration range,"[1]; 10 mg/L to 100,000 mg/L based on the organic matter available for digestion",beneficial at all concentration levels
same,concentration range of greatest effects,"[1]; 10 mg/L to 100,000 mg/L tested","greatest effects being observed over the 100 ppm to the 2,000-mg/L range"
same,cellular activity in the mixed culture,[1]; above the 5000 ppm concentration level,"slightly, but still progressively more inhibited"
same,effect of accidental addition of too much (titration data),[1]; overdose,would not shut down the digester culture
same,effect on anaerobic digestion process,"[1]; up to 5000 ppm, batch reactors, up to 55 days",facilitate the anaerobic digestion process at all concentration levels up to 5000 ppm
same,Total Volatile Solids,"[2]; 1000 ppm, day 2",33.4 g/L and 32.6 g/L and 26.7 g/L
same,Total Volatile Solids,"[2]; 1000 ppm, day 7",30.6 g/L and 29.9 g/L and 29.3 g/L
same,Total Volatile Solids,"[2]; 1000 ppm, day 16",16.4 g/L and 13.1 g/L and 18.1 g/L
same,Total Volatile Solids,"[2]; 1000 ppm, day 24",14.4 g/L and 10.3 g/L and 15.2 g/L
same,Total Volatile Solids,"[2]; 1000 ppm, day 55",12.9 g/L and 10.7 g/L and 14.2 g/L
same,Total Volatile Solids,"[2]; 1000 ppm, with formate addition at t = 0",39.6 g/L and 38.8 g/L and 37.3 g/L
same,Total Volatile Solids,"[2]; 5000 ppm, day 2",23.7 g/L
same,Total Volatile Solids,"[2]; 5000 ppm, day 7",20.3 g/L
same,Total Volatile Solids,"[2]; 5000 ppm, day 16",12.6 g/L
same,Total Volatile Solids,"[2]; 5000 ppm, day 24",11.7 g/L
same,Total Volatile Solids,"[2]; 5000 ppm, day 55",14.7 g/L
same,Total Volatile Solids,"[2]; 5000 ppm, with formate addition at t = 0",41.8 g/L
same,Total Volatile Solids,"[2]; 10000 ppm, day 2",25.5 g/L and 30.2 g/L and 29.8 g/L
same,Total Volatile Solids,"[2]; 10000 ppm, day 7",19.2 g/L and 24 g/L and 24.1 g/L
same,Total Volatile Solids,"[2]; 10000 ppm, day 16",17.1 g/L and 21.0 g/L and 15.0 g/L
same,Total Volatile Solids,"[2]; 10000 ppm, day 24",16.4 g/L and 18.9 g/L and 15.2 g/L
same,Total Volatile Solids,"[2]; 10000 ppm, day 55",19.8 g/L and 20.1 g/L and 18.5 g/L
same,Total Volatile Solids,"[2]; 10000 ppm, with formate addition at t = 0",38.8 g/L and 46.9 g/L and 46.4 g/L
same,Total Volatile Solids,"[2]; 100000 ppm, day 2",68.5 g/L and 80.8 g/L
same,Total Volatile Solids,"[2]; 100000 ppm, day 7",45.8 g/L and 52.7 g/L
same,Total Volatile Solids,"[2]; 100000 ppm, day 16",44.7 g/L and 54.10 g/L
same,Total Volatile Solids,"[2]; 100000 ppm, day 24",41.4 g/L and 51.6 g/L
same,Total Volatile Solids,"[2]; 100000 ppm, day 55",45.5 g/L and 65.8 g/L
same,Total Volatile Solids,"[2]; 100000 ppm, with formate addition at t = 0",126.6 g/L and 134.9 g/L
same,colony types identified,[3]; 10% level,only Cellulomonas cellulans was identified along with large masses of yeast cells
same,bio-diversity of the mixed culture,[3]; 1000-5000 ppm,increase the bio-diversity of the mixed culture
same,number of predominant colony types,"[3]; 1000 ppm, control had two",eight
same,growth of colonies in the mixed culture,[3]; lower levels (≦5000 ppm),facilitate growth of some of the more dormant colonies in the mixed culture
same,bacterial counts,"[4]; 100 ppm to 100,000 ppm, lower counts at higher concentrations",> 10^5 CFU per milliliter
same,Colony forming units per mL,"[4]; 5000 ppm, reactor 3",0.59 × 10^7 per mL
same,Colony forming units per mL,"[4]; 10000 ppm, single reactors (2, 4, 5)",0.26 × 10^7 per mL and 0.19 × 10^7 per mL and 0.38 × 10^7 per mL
same,Average Composition CH4,"[5]; 1000 ppm, average of reactors",0%
same,Average Composition CO2,"[5]; 1000 ppm, average of reactors",18.3%
same,Average Composition N2,"[5]; 1000 ppm, average of reactors",71.7%
same,Composition CH4,"[5]; 1000 ppm, single reactors",0%
same,Composition CO2,"[5]; 1000 ppm, single reactors",40% and 20% and 25%
same,Composition N2,"[5]; 1000 ppm, single reactors",60% and 80% and 75%
same,Average Composition CH4,[5]; 5000 ppm,0.1%
same,Average Composition CO2,[5]; 5000 ppm,41%
same,Average Composition N2,[5]; 5000 ppm,59%
same,Composition CH4,"[5]; 5000 ppm, reactor 3",0.1%
same,Composition CO2,"[5]; 5000 ppm, reactor 3",41%
same,Composition N2,"[5]; 5000 ppm, reactor 3",59%
same,Volume of CO2 generated,"[5]; 5000 ppm, reactor 3",725 mL
same,Volume of gas,"[5]; 5000 ppm, reactor 3",1750 mL
same,Average Composition CH4,"[5]; 10000 ppm, average of reactors",0%
same,Average Composition CO2,"[5]; 10000 ppm, average of reactors",41.7%
same,Average Composition N2,"[5]; 10000 ppm, average of reactors",58.3%
same,Composition CH4,"[5]; 10000 ppm, single reactors",0%
same,Composition CO2,"[5]; 10000 ppm, single reactors",57% and 43% and 40%
same,Composition N2,"[5]; 10000 ppm, single reactors",43% and 57% and 60%
same,Average Composition CH4,[5]; [6],0%
same,Average Composition CO2,[5]; [6],59%
same,Average Composition N2,[5]; [6],41.5%
same,Composition CH4,"[5]; 100000 ppm, single reactors",0%
same,Composition CO2,"[5]; 100000 ppm, single reactors",70% and 47%
same,Composition N2,"[5]; 100000 ppm, single reactors",30% and 53%
same,Volume of CO2 generated,"[5]; 100000 ppm, single reactors",910 mL and 1663 mL
